Consider 7 compounds from US11021448B2, “1,3-dihydro-1,4-benzodiazepine-2-thiones for the treatment of CNS related diseases” (priority 2016, dated 2021).

Molecules are shown by their SMILES. Where two headings read alike, the source gives them in different places. Bounds are passed on as bounds.

For one data set, the target named is T1, GABA-A alpha5 (α5β3γ2) (Homo sapiens, UniProt P18507+P31644).
T1 construct: expressed in transfected cells; host or cells: HEK293 (transient transfection; membranes)
Nature of the data set: GABA A radioligand binding assay, competition for [3H]flumazenil. The settings on record: [3H]flumazenil 1 nM, HEK293 membranes. The protocol: The ability of compounds present invention to bind to GABA A receptor subtypes was determined by competition for [^3H]flumazenil (85 Ci/mmol; Roche) binding to HEK293 cells expressing human (transiently transfected) receptors of composition α1β2γ2, and α5β3γ2.
Membrane preparation Cell pellets were suspended in Krebs-tris buffer (5 mM KCl, 1.25 mM CaCl2), 1.25 mM MgCl2, 120 mM NaCl, 15 mM Tris; pH 7.5; binding assay buffer), homogenized by polytron for ca. 20 sec on ice and centrifuged for 60 min at 4° C. (50000 g; Sorvall, rotor: SM24=20000 rpm). The cell pellets were resuspended in Krebs-tris buffer and homogenized by polytron for ca. 15 sec on ice. Protein was measured (Bradford method, Bio-Rad) and aliquots of 1 mL were prepared and stored at −80° C.
Radioligand binding assays were carried out in a volume of 200 uL (96-well plates) which contained 100 μL of cell membranes, [3H]flumazenil at a concentration of 1 nM for a1, a2, a3 subunits and 1 nM for a5 subunits and the test compound in the range of 3.16 μM to 0.1 μM. Nonspecific binding was defined by 10^−5 M diazepam and typically represented less than 5% of the total binding. […] After drying, filter-retained radioactivity was detected by liquid scintillation counting.
Ki values were calculated using Excel-Fit (Microsoft) and are the means of two determinations.

In a further data set the target is T2, hM1 (Homo sapiens, UniProt P11229).
T2 construct: expressed in transfected cells; host or cells: CHO
T2 sequence (P11229 1-460): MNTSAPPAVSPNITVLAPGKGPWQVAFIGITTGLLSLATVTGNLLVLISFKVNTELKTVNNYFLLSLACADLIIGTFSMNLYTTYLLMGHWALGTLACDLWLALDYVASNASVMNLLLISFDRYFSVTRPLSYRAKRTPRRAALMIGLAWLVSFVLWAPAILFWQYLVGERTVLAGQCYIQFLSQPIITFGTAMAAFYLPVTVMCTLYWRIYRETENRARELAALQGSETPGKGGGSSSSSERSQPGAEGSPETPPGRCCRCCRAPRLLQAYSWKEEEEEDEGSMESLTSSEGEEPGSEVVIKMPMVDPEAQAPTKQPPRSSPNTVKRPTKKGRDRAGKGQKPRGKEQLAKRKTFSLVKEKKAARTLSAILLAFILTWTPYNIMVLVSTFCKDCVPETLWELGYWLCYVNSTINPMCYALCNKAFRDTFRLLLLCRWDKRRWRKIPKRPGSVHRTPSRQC
Nature of the data set: FLIPR intracellular calcium assay for modulator activity at the muscarinic M1 receptor in CHO human M1 cells. In kind it is cell-based. The protocol: The assay study the effect of several concentrations of test compounds on basal or acetylcholine-stimulated Ca^2+ levels using FLIPR.
The cell plate and the diluted compounds (1% DMSO final concentration) are placed on the platform of the FLIPR and the door closed. A signal test to check background fluorescence and basal fluorescence signal is performed. Laser intensity is adjusted if necessary. Two minutes preincubation with the diluted test compounds is provide to determine any agonist activity on the M1 receptor by comparison to 30 nM Acetylcholine control. In order to determine any modulator activity the diluted compounds were added to cells and after two minutes preincubation, the EC20 of acetylcholine is added followed by another two minutes preincubation before the measurement of intracellular Ca^2+ with a FLIPR (Molecular Devices).
(In general: Calcium assays in cells follow changes in intracellular calcium, usually with a dye or a luminescent sensor.)

Another data set has as its system GABA A. Nature of the data set: Oocyte EP. In kind it is cell-based. The conditions noted are these: at 1 μM.

In general, Ki refers to the dissociation constant of the complex between target and ligand, obtained from inhibition or displacement. The low end stands for a stronger hold on the target, the high end for a looser hold on the target. A word on the IC50: it is the concentration that gives 50% inhibition. As for `CC(C)[C@@H]1N=C(c2ccccc2F)c2cc(Cl)ccc2NC1=S` [Example 5, (3S)-7-chloro-5-(2-fluorophenyl)-3-propan-2-yl-1,3-dihydro-1,4-benzodiazepine-2-thione], the inhibition constant (Ki) on GABA-A alpha5 (α5β3γ2) (GABA-A alpha 5 (second value, Ki implied), second value) was over 36 µM; at GABA-A alpha5 (α5β3γ2) (GABA-A alpha5: Ki), over 24 µM. The half-maximal inhibitory concentration (IC50) at hM1 is 80 nM. Besides, in the data set on GABA A, the “Oocyte EP effect” value is given as “no effect”. By melting point is commonly meant the temperature, or range, at which the solid turns liquid. Compound `CC(=O)OC1C=C(c2ccccc2F)c2cc(Cl)ccc2NC1=S` (centres unmarked) [Example 14, [7-chloro-5-(2-fluorophenyl)-2-thioxo-1,3-dihydro-1-benzazepin-3-yl]acetate] registered a melting point of 214 to 215 °C. Besides, the IC50 on hM1 (CHO human M1, with EC20 of acetylcholine, FLIPR, read-out: IC50 value hM1 (converted)) was 649 nM. As for `COc1ccc2c(c1)C(c1ccccc1)=N[C@@H](C(C)C)C(=S)N2` [Example 40, (3S)-3-isopropyl-7-methoxy-5-phenyl-1,3-dihydro-1,4-benzodiazepine-2-thione], on hM1, the half-maximal inhibitory concentration (IC50) came to 559 nM. On the same count and under the same terms, the same measure for `CC1N=C(c2ccccc2)c2ccccc2NC1=S` (centres unmarked) [Example 41, 3-methyl-5-phenyl-1,3-dihydro-1,4-benzodiazepine-2-thione]: 552 nM; for `CCC1CN(c2ccccc2)c2cc(Cl)ccc2NC1=S` (centres unmarked) [Example 42]: 50 nM. With `S=C1Nc2ccc(Cl)cc2C(c2ccccc2Cl)=NC1Cc1ccccc1` (centres unmarked) [Example X1, 3-Benzyl-7-chloro-5-(2-chloro-phenyl)-1,3-dihydro-benzo[1,4]diazepine-2-thione], the “activity at M1 receptor” value at hM1 was “no activity”. Still for that read-out and setting: with `S=C1Nc2ccc(Cl)cc2C(c2ccccc2Cl)=NC1CC1CC1` (centres unmarked) [Example X2, 7-chloro-5-(2-chlorophenyl)-3-(cyclopropylmethyl)-1H-benzo[e][1,4]diazepine-2(3H)-thione] the entry was “no activity”.
